Earlier results, collected in patent publication US10500190B1, “Sublingual or buccal administration of melatonin and/or valerian” (priority 2019, dated 2019).

How the values were obtained:
[1] = not given; remark: listed apart in the source

COc1ccc2[nH]cc(CCNC(C)=O)c2c1 [melatonin, N-acetyl-5-methoxytrypta mine]
variation of peak plasma concentrations (oral): over 20 fold | time after administration for the blood plasma concentration of melatonin to reach its peak (oral preparations): more than 30 minutes | solubility in water or other aqueous biological fluids [1]: poorly soluble
